Literature values in PubChem BioAssay AID1259410 (Chemical Carcinogenesis Research Information System (CCRIS), 2018).

Test system: rodent tumor promotion studies, tumor incidence
Test: CCRIS tumor promotion studies

## O=C1O[C@H]([C@H](O)CO)C(O)=C1O
Carcinogen: N-BUTYL-N-(4-HYDROXYBUTYL)NITROSAMINE, 3817-11-6, Doses [Carcinogen]: 0.05% IN DRINKING WATER FOR 4 WK, Doses [Promoter]: 0, 5% IN DIET FOR 32 WK (STUDY DURATION: 36 WK), Route [Carcinogen]: ORAL, Route [Promoter]: ORAL, Species: RAT, Strain/Sex: F344/MALE
  outcome: urinary bladder: papilloma, carcinoma
Carcinogen: N-BUTYL-N-(4-HYDROXYBUTYL)NITROSAMINE, 3817-11-6, Doses [Carcinogen]: 0.05% IN DRINKING WATER FOR 4 WK, Doses [Promoter]: 0, 5% IN DIET FOR 32 WK BEGINNING POST CARCINOGEN (STUDY DURATION: 36 WK), Route [Carcinogen]: ORAL, Route [Promoter]: ORAL, Species: RAT, Strain/Sex: F344/MALE
  outcome: bladder: papilloma, carcinoma

## CCCCCCCCC1=C(CCCCCCCC(=O)OC)C1
Doses [Carcinogen]: DIET, Doses [Promoter]: DIET, Route [Carcinogen]: ORAL, Route [Promoter]: ORAL, Species: FISH, Strain/Sex: RAINBOW TROUT/MALE,FEMALE
  outcome: liver

## O=C(CO)[C@@H](O)[C@H](O)[C@H](O)CO
Carcinogen: N-NITROSOMORPHOLINE, 59-89-2, Doses [Carcinogen]: 100 MG/KG/WK IN DRINKING WATER FOR 7 WK, Doses [Promoter]: 0, 120 G/L IN DRINKING WATER AD LIBITUM BEGINNING 2 D AFTER LAST CARCINOGEN DOSE (STUDY DURATION: 501 D), Route [Carcinogen]: ORAL, Route [Promoter]: ORAL, Species: RAT, Strain/Sex: SPRAGUE-DAWLEY/MALE
  outcome: liver: hepatocellular carcinoma

## CN[C@@H]1C[C@H]2O[C@@](C)([C@@H]1OC)n1c3ccccc3c3c4c(c5c6ccccc6n2c5c31)C(=O)NC4
Carcinogen: 7,12-DIMETHYLBENZ[A]ANTHRACENE, 57-97-6, Doses [Carcinogen]: 100 UG IN 100 µL ACETONE TO THE DORSAL SKIN ONCE, Doses [Promoter]: 0, 10, 50 UG IN 100 µL ACETONE TO THE DORSAL SKIN 2/WK FOR 29 WK BEGINNING 1 WK POST CARCINOGEN DOSE (STUDY DURATION: 30, Doses [Promoter]: 0, 10, 50 UG IN 100 µL ACETONE TO THE DORSAL SKIN 2/WK FOR 29 WK BEGINNING 1 WK POST CARCINOGEN DOSE (STUDY DURATION: 30, Route [Carcinogen]: DERMAL, Route [Promoter]: DERMAL, Species: MOUSE, Strain/Sex: CD-1/FEMALE
  outcome: skin: tumor

## Nc1nc(-c2ccccc2)c(-c2ccccc2)s1
Carcinogen: N-ETHYL-N-HYDROXYETHYLNITROSAMINE, 13147-25-6, Doses [Carcinogen]: 1000 PPM IN DRINKING WATER FOR 2 WK, Doses [Promoter]: 0, 1.06% IN DIET FOR 14 WK BEGINNING POST CARCINOGEN TREATMENT (STUDY DURATION: 32 WK), Route [Carcinogen]: ORAL, Route [Promoter]: ORAL, Species: RAT, Strain/Sex: WISTAR/MALE
  outcome: kidney: renal cell tumor
Carcinogen: N-ETHYL-N-HYDROXYETHYLNITROSAMINE, 13147-25-6, Doses [Carcinogen]: 1000 PPM IN DRINKING WATER FOR 2 WK, Doses [Promoter]: 0, 1.06% IN DIET FOR 30 WK BEGINNING POST CARCINOGEN TREATMENT (STUDY DURATION: 32 WK), Route [Carcinogen]: ORAL, Route [Promoter]: ORAL, Species: RAT, Strain/Sex: WISTAR/MALE
  outcome: kidney: renal cell tumor

## C=C1/C(=C\C=C2/CCC[C@]3(C)[C@@H]([C@H](C)CCC(F)(F)C(C)(C)O)CC[C@@H]23)C[C@H](O)C[C@H]1O
Carcinogen: 7,12-DIMETHYLBENZ[A]ANTHRACENE, 57-97-6, Doses [Carcinogen]: 50 NMOL IN 200 µL ACETONE 2/WK FOR 16 WK, Doses [Promoter]: 0, 0.05, 0.1 NMOL IN 200 µL ACETONE APPLIED 1 HR PRIOR TO CARCINOGEN DOSES 2/WK FOR 16 WK (STUDY DURATION: 16 WK), Doses [Promoter]: 0, 0.05, 0.1 NMOL IN 200 µL ACETONE APPLIED 1 HR PRIOR TO CARCINOGEN DOSES 2/WK FOR 16 WK (STUDY DURATION: 16 WK), Route [Carcinogen]: DERMAL, Route [Promoter]: DERMAL, Species: MOUSE, Strain/Sex: CD-1/FEMALE
  outcome: skin: tumors

## Cn1c(N)nc2c3cccnc3ccc21
Carcinogen: Diethyl nitrosamine (DEN), 55-18-5 and dimethylhydrazine (DMH), 30260-66-3, Carcinogen: Diethyl nitrosamine (DEN), 55-18-5 and dimethylhydrazine (DMH), 30260-66-3, Doses [Carcinogen]: DEN, 200 mg/kg once at -3 days, DMH, 40 mg/kg 4 injections between day 0 and wk 2, Doses [Promoter]: 0, 300 ppm in diet from week 2 to 29, study duration 29 wk, Doses [Promoter]: 0, 300 ppm in diet from week 2 to 29, study duration 29 wk, Route [Carcinogen]: Intraperitoneal (DEN) and subcutaneous (DMH), Route [Promoter]: Oral, Species: Rat, Strain/Sex: F344/Du Crj (20/group with 11 survivors)
  outcome: liver: hepatocellular adenoma and carcinoma. colon adenoma and carcinoma. signif

## C1CCCCC1
Carcinogen: DIMETHYLBENZ[A]ANTHRACENE, 57-97-6, Doses [Carcinogen]: 0.2 UMOL (51.2 UG) IN O.2 ML ACETONE ONCE, Doses [Promoter]: 0, 100 µL 3/WK ADMINISTERED 7 D POST CARCINOGEN DOSE AND CONTINUING FOR DURATION OF STUDY (STUDY DURATION: 1 YR), Route [Carcinogen]: DERMAL, Route [Promoter]: DERMAL, Species: MOUSE, Strain/Sex: SWISS/FEMALE
  outcome: skin: tumor, squamous cell papilloma, keratoacanthoma

## Clc1cccc(-c2ccc(Cl)c(Cl)c2Cl)c1Cl
Carcinogen: 4-(METHYLNITROSAMINO)-1-(3-PYRIDYL)-1-BUTANONE, 64091-91-4, Doses [Carcinogen]: 50 MG/KG ON D 4 OF LIFE, Doses [Promoter]: 500 MG/KG ONCE ON D 56 OF LIFE (STUDY DURATION: 52 WK), Route [Carcinogen]: INTRAPERITONEAL, Route [Promoter]: INTRAGASTRIC, Species: MOUSE, Strain/Sex: SWISS/FEMALE
  outcome: lung: tumor
Carcinogen: 4-(METHYLNITROSAMINO)-1-(3-PYRIDYL)-1-BUTANONE, 64091-91-4, Doses [Carcinogen]: 100 MG/KG (0.5 MMOL) IN 0.9% STERILE SALINE ON DAYS 15, 17, AND 19 OF GESTATION, Doses [Promoter]: 0, 500 MG/KG IN OLIVE OIL ON POSTNATAL DAY 56 (STUDY DURATION: 72 WK), Route [Carcinogen]: TRANSPLACENTAL, Route [Promoter]: GAVAGE, Species: MOUSE, Strain/Sex: SWISS/MALE
  outcome: liver: hepatocellular adenoma or carcinoma
Carcinogen: 4-(METHYLNITROSAMINO)-1-(3-PYRIDYL)-1-BUTANONE, 64091-91-4, Doses [Carcinogen]: 100 MG/KG IN 0.9% SALINE ON GESTATION DAYS 15, 17 AND 19, Doses [Promoter]: 500 MG/KG ONCE ON D 56 OF LIFE TO OFFSPRING OF CARCINOGEN-TREATED MOTHERS (STUDY DURATION: 52 WK), Route [Carcinogen]: INTRAPERITONEAL, Route [Promoter]: INTRAGASTRIC, Species: MOUSE, Strain/Sex: SWISS/MALE
  outcome: lung: tumor
Carcinogen: DIETHYLNITROSAMINE, 55-18-5, Doses [Carcinogen]: 90 MG/KG BW ONCE, Doses [Promoter]: 0, 100 PPM IN DIET FOR 20 WK BEGINNING 3 WK POST CARCINOGEN DOSE (STUDY DURATION: 47 WK), Route [Carcinogen]: INTRAPERITONEAL, Route [Promoter]: ORAL, Species: MOUSE, Strain/Sex: C57BL/MALE
  outcome: liver: tumor
Carcinogen: DIETHYLNITROSAMINE, 55-18-5, Doses [Carcinogen]: 1100 PPM IN DIET FOR 1 YR, Doses [Promoter]: 0, 100 PPM IN DIET FOR 1 YR (STUDY DURATION: 1 YR), Route [Carcinogen]: ORAL, Route [Promoter]: ORAL, Species: FISH, Strain/Sex: RAINBOW TROUT/MALE, FEMALE
  outcome: liver: hepatocellular carcinoma
Carcinogen: DIISOPROPANOLNITROSAMINE [53609-64-6], Doses [Carcinogen]: SINGLE DOSE OF 2.5 G/KG BW, Doses [Promoter]: 100 PPM IN DIET BEGINNING 1 WK AFTER DIPN TREATMENT FOR 19 WKS (STUDY DURATION: 20 WKS), Route [Carcinogen]: SUBCUTANEOUS INJECTION, Route [Promoter]: DIET, Species: RAT, Strain/Sex: SPRAGUE-DAWLEY/MALE
  outcome: thyroid: carcinoma
Carcinogen: N-NITROSODIETHYLAMINE, 55-18-5, Doses [Carcinogen]: 90 MG/KG BW ONCE, Doses [Promoter]: 0, 175, 350 PPM IN DIET FOR 53 WK BEGINNING 2 WK POST CARCINOGEN DOSE (STUDY DURATION: 55 WK), Doses [Promoter]: 0, 175, 350 PPM IN DIET FOR 53 WK BEGINNING 2 WK POST CARCINOGEN DOSE (STUDY DURATION: 55 WK), Route [Carcinogen]: INTRAPERITONEAL, Route [Promoter]: ORAL, Species: MOUSE, Strain/Sex: D2B6F1/MALE
  outcome: liver: hepatocellular adenoma, hepatocellular carcinoma
Carcinogen: N-NITROSODIMETHYLAMINE, 62-75-9, Doses [Carcinogen]: 5 MG/KG IN SALINE ONCE AT 4 DAYS OF AGE, Doses [Promoter]: 0, 250 MG/KG IN OLIVE OIL ONCE AT 8 DAYS OF AGE (STUDY DURATION: 28 WK), Route [Carcinogen]: INTRAPERITONEAL, Route [Promoter]: GAVAGE, Species: MOUSE, Strain/Sex: SWISS/MALE
  outcome: lung: tumor
Carcinogen: N-NITROSODIMETHYLAMINE, 62-75-9, Doses [Carcinogen]: 5 MG/KG IN SALINE ONCE AT 4 DAYS OF AGE, Doses [Promoter]: 0, 250 MG/KG IN OLIVE OIL ONCE AT 8 DAYS OF AGE (STUDY DURATION: 52 WK), Route [Carcinogen]: INTRAPERITONEAL, Route [Promoter]: GAVAGE, Species: MOUSE, Strain/Sex: SWISS/MALE
  outcome: lung: tumor; liver: tumor
Carcinogen: N-NITROSODIMETHYLAMINE, 62-75-9, Doses [Carcinogen]: 5 MG/KG ON D 4 OF LIFE, Doses [Promoter]: 500 MG/KG ONCE ON D 56 OF LIFE (STUDY DURATION: 52 WK), Route [Carcinogen]: INTRAPERITONEAL, Route [Promoter]: INTRAGASTRIC, Species: MOUSE, Strain/Sex: SWISS/MALE
  outcome: lung: tumor; liver: tumor
Carcinogen: N-NITROSODIMETHYLAMINE, 62-75-9, Doses [Carcinogen]: 10 MG/KG IN SALINE ON GESTATION D 19, Doses [Promoter]: 500 MG/KG ONCE ON D 56 OF LIFE TO OFFSPRING OF CARCINOGEN-TREATED MOTHERS (STUDY DURATION: 52 WK), Route [Carcinogen]: INTRAPERITONEAL, Route [Promoter]: INTRAGASTRIC, Species: MOUSE, Strain/Sex: SWISS/MALE
  outcome: lung: tumor
